Among the data in patent publication US9023865B2, “Compounds that are ERK inhibitors” (Merck Sharp & Dohme Corp., priority 2011, dated 2015) are IC50 values, retold here.

Molecules are shown by their SMILES. Counter-ions that a name gives are not always drawn. Like-named read-outs stand apart in the source and are kept apart here.

Assay [1] concerns the target Active Human ERK2 (hERK2) (Homo sapiens (Human), UniProt P28482). Kind of assay: Active Human ERK2 (hERK2) Activity Assay (IMAP-FP). The assay is classed as biochemical. An outline of the steps:
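Phosphorylation by activated human ERK2 (0.5 nM) at 30 μM ATP, peptide substrate 900 nM unlabeled with 80 nM labeled, proceeds 60 min. IMAP beads stop the reaction; after 60 min equilibration, product is measured by fluorescence polarization.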

For assay [2], the target named is Active Mouse ERK2 (mERK2) (Mus musculus (Mouse), UniProt P63085). Kind of assay: Active Mouse ERK2 (mERK2) Activity Assay (IMAP-FP). The assay is classed as biochemical. As for the experimental part: Active Mouse ERK2 (mERK2) Activity Assay:
Activated ERK2 activity was determined in an IMAP-FP assay (Molecular Devices). […] Phosphorylation reactions were allowed to proceed for 45 minutes and were immediately quenched by the addition of 60 μL IMAP detection beads (1:1000 dilutions) in IMAP binding buffer (Molecular Devices) with 24 mM NaCl. Plates were read on EnVision reader after 60 minutes binding equilibration using Fluorescence Polarization protocol (Perkin Elmer).

The mark [3] stands for this setting: phosphorylated active hERK2, 30 μM ATP, average, read-out: ERK 2 Human average IC50.
Setting [4] is: phosphorylated active mERK2, 30 uM ATP, read-out: ERK 2 MAPK1 Mouse IC50.
[5] abbreviates: read-out: AERK2 IC50 (Active mouse ERK2 Activity Assay).
Where [6] appears, read: read-out: AERK2 IC50 (Active human ERK2 Activity Assay).

Active Mouse ERK2 (mERK2), sequence (P63085 whole entry): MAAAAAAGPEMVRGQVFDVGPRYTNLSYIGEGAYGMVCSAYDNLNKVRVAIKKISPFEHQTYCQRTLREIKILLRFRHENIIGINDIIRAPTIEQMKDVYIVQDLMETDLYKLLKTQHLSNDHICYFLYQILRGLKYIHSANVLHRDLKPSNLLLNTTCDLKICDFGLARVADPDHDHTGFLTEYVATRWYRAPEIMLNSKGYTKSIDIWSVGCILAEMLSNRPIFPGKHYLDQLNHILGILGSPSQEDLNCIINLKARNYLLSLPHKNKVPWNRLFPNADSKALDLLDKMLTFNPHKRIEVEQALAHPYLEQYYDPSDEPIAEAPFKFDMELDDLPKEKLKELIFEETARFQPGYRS
Active Human ERK2 (hERK2), sequence (P28482 whole entry): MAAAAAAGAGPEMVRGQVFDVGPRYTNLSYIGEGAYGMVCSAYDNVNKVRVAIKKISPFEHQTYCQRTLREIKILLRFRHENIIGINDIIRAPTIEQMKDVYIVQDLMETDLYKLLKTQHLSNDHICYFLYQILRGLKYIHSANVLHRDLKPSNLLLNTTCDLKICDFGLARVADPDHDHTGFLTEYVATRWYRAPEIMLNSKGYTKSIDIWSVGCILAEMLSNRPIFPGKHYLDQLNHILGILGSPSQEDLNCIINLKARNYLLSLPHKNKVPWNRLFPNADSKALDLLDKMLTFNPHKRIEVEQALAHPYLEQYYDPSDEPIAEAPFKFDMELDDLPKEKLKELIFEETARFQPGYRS

In the case of `CCCc1n[nH]c2cc(NC(=O)N[C@H](C)c3ccccc3)ncc12` [Example 22, (R)-1-(1-phenylethyl)-3-(3-propyl-1H-pyrazolo[4,3-c]pyridin-6-yl)urea], the half-inhibitory concentration (IC50) was 1.61 nM in assay [1] (setting [3]), 0.919 nM in assay [2] (setting [4]) and 0.1 to 1.2 nM in assay [2] (setting [5]). As to `Cc1cc(-c2n[nH]c3cc(NC(=O)N[C@H](C)c4ccc(Cl)cc4)ncc23)ccn1` [Example 19, 1-[(1R)-1-(4-chlorophenyl)ethyl]-3-[3-(2-methylpyridin-4-yl)-1H-pyrazolo[4,3-c]pyridin-6-yl]urea], the figures for the IC50 in assay [1] (setting [3]), in assay [2] (setting [4]) and in assay [2] (setting [5]) were 0.556 nM, 0.296 nM and 0.1 to 1.2 nM, respectively.

For the compound `COc1cccc(F)c1CN1CCC[C@@H](NC(=O)Nc2cc3[nH]nc(-c4ccnc(C)c4)c3cn2)C1` [Example 2, 1-[(3R)-1-(2-fluoro-6-methoxybenzyl)-piperidin-3-yl]-3-[3-(2-methylpyridin-4-yl)-1H-pyrazolo[4,3-c]pyridin-6-yl]urea], the concentration for half-maximal inhibition (IC50) in assay [1] (setting [3]) is 0.286 nM; in assay [2] (setting [4]), 0.152 nM; in assay [2] (setting [5]), 0.1 to 1.2 nM.

Take `Cc1cc(-c2n[nH]c3cc(NC(=O)N[C@@H](C)c4ccccc4)ncc23)ccn1` [Example 7, 1-[3-(2-methylpyridin-4-yl)-1H-pyrazolo[4,3-c]pyridin-6-yl]-3-[(1S)-1-phenylethyl]urea]: the IC50 in assay [2] (setting [4]) is 38.3 nM. Take `Cc1cc(-c2n[nH]c3cc(NC(N)=O)ncc23)ccn1` [Example 23, 1-(3-(2-methylpyridin-4-yl)-1H-pyrazolo[4,3-c]pyridin-6-yl)urea]: the values for the IC50 in assay [1] (setting [3]) and in assay [2] (setting [4]) were 2 nM and 2.22 nM, respectively. Consider `Cc1cc(-c2n[nH]c3cc(NC(=O)N[C@@H](CO)c4ccccc4)ncc23)ccn1` [Example 17, 1-[(1R)-2-hydroxy-1-phenylethyl]-3-[3-(2-methylpyridin-4-yl)-1H-pyrazolo[4,3-c]pyridin-6-yl]urea], for which the half-maximal inhibitory concentration (IC50) in assay [2] (setting [4]) is 108 nM. Regarding `C[C@@H](NC(=O)Nc1cc2[nH]nc(C3=CCOCC3)c2cn1)c1ccccc1` [Example 20, 1-[3-(3,6-dihydro-2H-pyran-4-yl)-1H-pyrazolo[4,3-c]pyridin-6-yl]-3-[(1R)-1-phenylethyl]urea], the IC50 in assay [2] (setting [4]) is 0.537 nM; in assay [2] (setting [5]), 0.1 to 1.2 nM. As for `COCCCc1n[nH]c2cc(NC(=O)N[C@H](C)c3ccccc3)ncc12` [Example 21, (R)-1-(3-(3-methoxypropyl)-1H-pyrazolo[4,3-c]pyridin-6-yl)-3-(1-phenylethyl)urea], the IC50 in assay [1] (setting [3]) is 2.53 nM; in assay [2] (setting [4]) it was 2.23 nM. As for `Cc1cc(-c2n[nH]c3cc(NC(=O)NCc4ccccc4)ncc23)ccn1` [Example 9], the 50% inhibitory concentration (IC50) was 0.851 nM in assay [1] (read-out: ERK 2 Human average IC50), 0.222 nM in assay [2] (setting [4]) and 0.1 to 1.2 nM in assay [2] (setting [5]).

As for `Cc1cc(-c2n[nH]c3cc(NC(=O)NCc4ccc(Cl)cc4)ncc23)ccn1` [Example 26, 1-(4-chlorobenzyl)-3-[3-(2-methylpyridin-4-yl)-1H-pyrazolo[4,3-c]pyridin-6-yl]urea], the IC50 was 0.513 nM in assay [1] (setting [3]), 0.457 nM in assay [2] (setting [4]) and 0.1 to 1.2 nM in assay [2] (setting [5]). As to `Cc1cc(-c2n[nH]c3cc(NC(=O)NC4CCCNC4)ncc23)ccn1` (centres unmarked) [Example 1, 3-({[3-(2-methylpyridin-4-yl)-1H-pyrazolo[4,3-c]pyridin-6-yl]carbamoyl}amino)piperidinium trifluoroacetate], the IC50 in assay [2] (setting [4]) worked out at 3.13 nM. Take `Cc1cc(-c2n[nH]c3cc(NC(=O)NC(CO)c4ccccc4)ncc23)ccn1` (centres unmarked) [Example 10, 1-(2-hydroxy-1-phenylethyl)-3-[3-(2-methylpyridin-4-yl)-1H-pyrazolo[4,3-c]pyridin-6-yl]urea]: the concentration for half-maximal inhibition (IC50) is 0.215 nM in assay [2] (setting [4]) and 0.1 to 1.2 nM in assay [2] (setting [5]). On the same counts, the results for `Cc1cc(-c2n[nH]c3cc(NC(=O)NCc4ccc(Cl)c(Cl)c4)ncc23)ccn1` [Example 8, 1-(3,4-dichlorobenzyl)-3-[3-(2-methylpyridin-4-yl)-1H-pyrazolo[4,3-c]pyridin-6-yl]urea] are 0.516 nM and 0.1 to 1.2 nM. `Cc1cc(-c2n[nH]c3cc(NC(=O)N[C@H](CO)c4ccccc4)ncc23)ccn1` [Example 15, 1-[(1S)-2-hydroxy-1-phenylethyl]-3-[3-(2-methylpyridin-4-yl)-1H-pyrazolo[4,3-c]pyridin-6-yl]urea]: the figures for the half-maximal inhibitory concentration (IC50) in assay [1] (setting [3]) and in assay [2] (setting [5]) were 0.392 nM and 0.1 to 1.2 nM, respectively. Regarding `COc1cccc(F)c1CN1CCCC(NC(=O)Nc2cc3[nH]nc(-c4ccnc(C)c4)c3cn2)C1` (centres unmarked) [Example 4, 1-[1-(2-fluoro-6-methoxybenzyl)-piperidin-3-yl]-3-[3-(2-methylpyridin-4-yl)-1H-pyrazolo[4,3-c]pyridin-6-yl]urea], the IC50 was 1.12 nM in assay [2] (setting [4]) and 0.1 to 1.2 nM in assay [2] (setting [5]). For `Cc1cc(-c2n[nH]c3cc(NC(=O)N[C@H](c4ccccc4)C(F)(F)F)ncc23)ccn1` [Example 18, 1-[3-(2-methylpyridin-4-yl)-1H-pyrazolo[4,3-c]pyridin-6-yl]-3-[(1R)-2,2,2-trifluoro-1-phenylethyl]urea], the IC50 in assay [2] (setting [4]) is 9.46 nM.

As to `COc1cccc(F)c1CN1CCC[C@H](NC(=O)Nc2cc3[nH]nc(-c4ccnc(C)c4)c3cn2)C1` [Example 3, 1-[(3S)-1-(2-fluoro-6-methoxybenzyl)-piperidin-3-yl]-3-[3-(2-methylpyridin-4-yl)-1H-pyrazolo[4,3-c]pyridin-6-yl]urea], the IC50 in assay [2] (setting [4]) stood at 36.6 nM. In the case of `Cc1cc(-c2n[nH]c3cc(NC(=O)NCCc4ccccc4)ncc23)ccn1` [Example 5, 1-[3-(2-methylpyridin-4-yl)-1H-pyrazolo[4,3-c]pyridin-6-yl]-3-(2-phenylethyl)urea], the half-maximal inhibitory concentration (IC50) is 0.502 nM in assay [2] (setting [4]) and 0.1 to 1.2 nM in assay [2] (setting [5]). In the case of `Cc1cc(-c2n[nH]c3cc(NC(=O)N[C@@H](C)c4ccc(F)cc4)ncc23)ccn1` [Example 11, 1-[(1S)-1-(4-fluorophenyl)ethyl]-3-[3-(2-methylpyridin-4-yl)-1H-pyrazolo[4,3-c]pyridin-6-yl]urea], the values for the IC50 in assay [1] (setting [3]), in assay [2] (setting [4]) and in assay [2] (setting [5]) were 0.342 nM, 0.152 nM and 0.1 to 1.2 nM, respectively.

Take `Cc1cc(-c2n[nH]c3cc(NC(=O)NCc4nnc(C)o4)ncc23)ccn1` [Example 13]: the IC50 in assay [2] (setting [4]) is 10.2 nM. Still for that read-out and setting: for `Cc1cc(-c2n[nH]c3cc(NC(=O)N[C@@H](c4ccccc4)C(F)(F)F)ncc23)ccn1` [Example 16, 1-[3-(2-methylpyridin-4-yl)-1H-pyrazolo[4,3-c]pyridin-6-yl]-3-[(1S)-2,2,2-trifluoro-1-phenylethyl]urea] the value was 3.78 nM. As to `Cc1cc(-c2n[nH]c3cc(NC(=O)NCc4cccnc4)ncc23)ccn1` [Example 14, 1-[3-(2-methylpyridin-4-yl)-1H-pyrazolo[4,3-c]pyridin-6-yl]-3-(pyridin-3-ylmethyl)urea], the IC50 in assay [2] (setting [4]) was 1.16 nM; in assay [2] (setting [5]) it was 0.1 to 1.2 nM. With `C[C@@H](NC(=O)Nc1cc2[nH]nc(-c3cnc(O)nc3)c2cn1)c1ccccc1` [Example 290], the IC50 in assay [1] (setting [3]) is 0.366 nM. As for `C[C@@H](NC(=O)Nc1cc2[nH]nc(-c3ccc4nn(C)cc4c3)c2cn1)c1ccc(F)cc1` [Example 63, 1-[(1R)-1-(4-fluorophenyl)ethyl]-3-[3-(2-methyl-2H-indazol-5-yl)-1H-pyrazolo[4,3-c]pyridin-6-yl]urea], the IC50 was 0.405 nM in assay [1] (setting [3]) and 0.2 to 1.7 nM in assay [1] (setting [6]). As for `Cc1cc(-c2n[nH]c3cc(NC(=O)NCc4ncccc4F)ncc23)ccn1` [Example 447], the IC50 in assay [1] (setting [3]) turned out to be 2.62 nM. On the same count and under the same terms, for `Cc1cc(-c2n[nH]c3cc(NC(=O)Nc4ccccc4)ncc23)ccn1` [Example 61, 1-[3-(2-methylpyridin-4-yl)-1H-pyrazolo[4,3-c]pyridin-6-yl]-3-phenylurea] the value was 127 nM; for `Cc1cc(-c2n[nH]c3cc(NC(=O)N[C@H](c4ccc(F)cc4)C(F)(F)F)ncc23)ccn1` [Example 279], 113 nM. Take `Cc1cc(-c2n[nH]c3cc(NC(=O)NC4CCCC(Oc5ccc(Cl)c(F)c5)C4)ncc23)ccn1` (centres unmarked) [Example 646]: in assay [1] (setting [3]), the IC50 stood at 373 nM.

Take `CC[C@@H](NC(=O)Nc1cc2[nH]nc(-c3ccnc(C)c3)c2cn1)c1ccccn1` [Example 218]: the IC50 in assay [1] (setting [3]) stood at 0.487 nM. On the same count and under the same terms, for `Cc1cc(-c2n[nH]c3cc(NC(=O)N[C@H](C)C4CCCCC4)ncc23)ccn1` [Example 575] the value was 1.2 nM. Turning to `C[C@@H](NC(=O)Nc1cc2[nH]nc(-c3cnn(C)c3)c2cn1)C1CCCCC1` [Example 589], the IC50 in assay [1] (setting [3]) came out at 0.823 nM. Same read-out and setting: the value for `Cc1cc(-c2n[nH]c3cc(NC(=O)NC(C)c4ccc(-n5cncn5)cc4)ncc23)ccn1` (centres unmarked) [Example 375] was 12.8 nM; that for `C[C@@H](NC(=O)Nc1cc2[nH]nc(-c3ccc(C#N)cc3)c2cn1)c1ccc(F)cc1` [Example 83, 1-[3-(4-cyanophenyl)-1H-pyrazolo[4,3-c]pyridin-6-yl]-3-[(1R)-1-(4-fluorophenyl)ethyl]urea] was 3.28 nM; that for `Cc1cc(-c2n[nH]c3cc(NC(=O)NC(CCO)c4ccccc4)ncc23)ccn1` (centres unmarked) [Example 334] was 0.333 nM. Still for that read-out and setting: for `Cc1cc(-c2n[nH]c3cc(NC(=O)N[C@H](CO)c4ccc(F)cc4)ncc23)ccn1` [Example 346] the value was 88.2 nM. As to `C[C@@H](NC(=O)Nc1cc2[nH]nc(-c3ccc(C#N)cc3)c2cn1)c1ccccc1` [Example 66, 1-[3-(4-cyanophenyl)-1H-pyrazolo[4,3-c]pyridin-6-yl]-3-[(1R)-1-phenylethyl]urea], the IC50 in assay [1] (setting [3]) is 1.06 nM; in assay [1] (setting [6]), 0.2 to 1.7 nM.

Usually IC50 stands for the concentration needed to halve the response being measured.
